Test results published in publication PMC10254045, “Elaboration of the Effective Multi-Target Therapeutic Platform for the Treatment of Alzheimer’s Disease Based on Novel Monoterpene-Derived Hydroxamic Acids” (International Journal of Molecular Sciences, 2023).

How the values were obtained:
[1] = Oxygen radical absorbance capacity (ORAC); conditions: Trolox equivalent; compounds and Trolox 100 µM, AAPH 12 mM
From the text: (§1) DPPH is a stable chromogen radical, which is widely used to assess the antioxidant activity of biological objects, in particular when searching for potential therapeutic agents used to maintain the redox balance in the body and treat pathologies associated with the action of free radicals. In turn, the oxygen radical absorbance capacity (ORAC) analysis is based on the removal by potential antioxidants of peroxyl radicals generated by AAPH (2,2’-axobis-2-methyl-propanimidamide, dihydrochloride), preventing the degradation of the fluorescein probe.
The analysis of the absorption capacity of oxygen radicals was performed as described in [151], with some modifications. Trolox (Sigma Aldrich, St. Louis, MI, USA) was used as a standard antioxidant. The studied compounds were introduced into the holes of a 96-hole black tablet with a transparent bottom with Trolox (25 µL; the final concentration was 100 µM) and fluorescein (150 µL; the final concentration was 80 nM, Sigma Aldrich, St. Louis, MI, USA). The resulting mixture was shaken and incubated for 30 min at 37 °C. After a 30-min incubation period, a solution of 2,2’-azobis (2-amidinopropane) dihydrochloride (AAPH) (25 µL; final concentration of 12 mM, Sigma Aldrich, St. Louis, MI, USA) was quickly introduced into all wells of the tablet. The tablet was immediately placed in a multifunctional tablet analyzer Cytation™ 3 (BioTek Instruments, Inc., Winooski, VT, USA). The fluorescence intensity was recorded for 300 min at λex = 480 nm, λem = 520 nm with an interval of every 5 min. In the same experiment, calibration solutions for the reference antioxidant Trolox were used to confirm the validity of the use of this method (0, 6.25, 12.5, 25, 50 and 100 µM).

Cell viability, MTT test = type: cell-based; conditions: human, SH-SY5Y neuroblastoma cells, 24-h exposure, read-out: IC50 cytotoxic action
Method: The culture of human neuroblastoma cells (defined as SH-SY5Y) was cultured in DMEM with the addition of embryonic bovine serum (10%), 2 mM glutamine (DiaM, Moscow, Russia) and penicillin-streptomycin (100 U/Ml–100 µg/mL, PanEco, Moscow, Russia) in conditions of 5% CO2 in the air at 37 °C. Upon reaching 80% confluence, cells in the amount of 1 × 10^4 were placed in 96-well transparent plates and incubated under the same conditions for 24 h. After the incubation time, the cells were exposed to a 24-h exposure to various concentrations of hydroxamic acids dissolved in dimethyl sulfoxide (range from 1 to 100 µM). An equivalent volume of solvent was used as a control (final DMSO content = 1%).
Cell survival analysis was performed using MTT test. To do this, 3-(4,5-dimethylthiazol-2-yl)-2,5-diphenyltetrazolium bromide (MTT, 5 mg/mL, DiaM, Moscow, Russia) was introduced into all wells and incubated at 37 °C for 2 h to restore metabolically active cells of the yellow tetrazolium salt MTT to purple formazane crystals. The resulting formazane was then re-suspended in 200 µL DMSO per well. The optical density was recorded using a multifunctional Cytation™3 flatbed analyzer (BioTek Instruments, Inc., Winooski, VT, USA) at λ = 530 nm.

[2] = DPPH radical scavenging activity; conditions: Trolox equivalent; compounds and Trolox 100 µM
From the text: as §1
The measurement of the antiradical activity of synthesized hydroxamic acids was carried out using the method described in [150]. The studied compounds were introduced into the wells of a 96-well black tablet (the final concentration was 100 microns), after which a freshly prepared solution of 2,2-diphenyl-1-picrylhydrazyl (Sigma Aldrich, St. Louis, Missouri, USA) was added. After the incubation time had elapsed, the DPPH radical-scavenging activity was measured using a multifunctional Cytation™3 tablet analyzer (BioTek Instruments, Inc., Winooski, VT, USA) at λ = 517 nm by the difference in the reduction of the DPPH radical peak between control samples containing an equivalent volume of solvent and samples with the substances under study.

[3] = system: 5xFAD transgenic mice brain; test: Histology of β-amyloid deposits in brain samples (Congo Red); type: in vivo; conditions: 21-day administration; cortex, midbrain and hippocampus zone; vs 5xFAD
From the text: As part of the in vivo testing of the biological activity of the leader compound, a transgenic mouse model with Alzheimer’s disease 5xFAD at the age of 13 months was used. This line expresses two human genes: APP (amyloid peptide precursor protein gene) with three types of mutations (Swedish (K670N, M671L), Florida (I716V) and London (V717I)), as well as the presenilin 1 gene with mutations (M146L and L286V) characteristic of this disease. Clinically healthy wildtype single-litter mice C57Bl6/j (n = 8) were used as a control group. Transgenic 5xFAD mice were randomly divided into two groups: (1) animals receiving intraperitoneal injections of hydroxamic acid 35a at a dose of 15 mg/kg (10% DMSO + NaCl) for three weeks—the 5xFAD + 35a group (n = 8) and (2) mice receiving an equivalent volume of solvent—the group 5xFAD (n = 8). All animals were kept in standard vivarium conditions at a temperature of 22 ± 1 °C and a humidity of 55% indoors with a 12-h light–dark cycle. The animals had no restrictions in the consumption of water and food. […]
After cervical dislocation, the half of brain was dissected and fixed with Carnoy’s solution (ethanol–chloroform–glacial acetic acid, 6:3:1) for 17 h. […] The stained deposits were evaluated using a ZEISS LSM 880 laser scanning microscope (Carl Zeiss, Oberkochen, Germany) in the tile scan mode. […]

C=C(C)[C@@H]1CC=C(CNC(=O)/C=C/c2ccc(C(=O)NO)cc2)CC1 [Compound 35a, (S,E)-N-hydroxy-4-(3-oxo-3-(((4-(prop-1-en-2-yl)cyclohex-1-en-1-yl)methyl)amino)prop-1-en-1-yl)benzamide]
ORAC value (TE) [1]: 1.15 TE
IC50 at 24 h (Cell viability, MTT test): 89.2 ± 2.09 µM
DPPH value (TE) [2]: 0.88 TE
number of β-amyloid aggregates in the brain [3]: decreased significantly
